Measurements as given in US20060069132A1, “Azolecarboxamide herbicides” (priority 2004, published 2006).

Experiments:
barnyardgrass [1] = experiment: Test B pre-/postemergence herbicide test; format: in vivo, Echinochloa crus-galli; details: for Plant response rating (0 to 100 scale), Barnyardgrass: 0 is no effect, 100 is complete control, preemergence; for Barnyardgrass plant response rating: scale 0 (no effect) to 100 (complete control)
Summary of the method: (§1)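 Flooded paddy rice and barnyardgrass were treated at the 2-leaf stage; upland plantings received compound either on sown seed or on 1- to 4-leaf seedlings. All were kept 13–15 days in a greenhouse and scored visually, 0–100, relative to untreated plants.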

Surinam grass = experiment: Test B pre-/postemergence herbicide test; format: in vivo, Urochloa decumbens; details: for Plant response rating (0 to 100 scale), Surinam Grass: 0 is no effect, 100 is complete control, preemergence
Summary of the method: (§2)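 Pre: seeds sown, then sprayed. Post: 1–4-leaf plants (2–18 cm) sprayed at the same time. Paddy: flooded, treated at 2-leaf stage. Formulation: non-phytotoxic solvent with surfactant. Greenhouse 13–15 days; visual 0–100 score relative to controls.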

cocklebur = experiment: Test B pre-/postemergence herbicide test; format: in vivo, Xanthium strumarium; details: for Plant response rating (0 to 100 scale), Cocklebur: 0 is no effect, 100 is complete control, preemergence
Summary of the method: as §1

corn = experiment: Test B pre-/postemergence herbicide test; format: in vivo, Zea mays; details: for Plant response rating (0 to 100 scale), Corn: 0 is no effect, 100 is complete control, preemergence
Summary of the method: as §2

large crabgrass = experiment: Test B pre-/postemergence herbicide test; format: in vivo, Digitaria sanguinalis; details: for Plant response rating (0 to 100 scale), Crabgrass, Large: 0 is no effect, 100 is complete control, preemergence
Summary of the method: as §2

giant foxtail = experiment: Test B pre-/postemergence herbicide test; format: in vivo, Setaria faberi; details: for Plant response rating (0 to 100 scale), Foxtail, Giant: 0 is no effect, 100 is complete control, preemergence
Summary of the method: as §2

lambsquarters = experiment: Test B pre-/postemergence herbicide test; format: in vivo, Chenopodium album; details: for Plant response rating (0 to 100 scale), Lambsquarters: 0 is no effect, 100 is complete control, preemergence
Summary of the method: as §2

morningglory = experiment: Test B pre-/postemergence herbicide test; format: in vivo, Ipomoea coccinea; details: for Plant response rating (0 to 100 scale), Morningglory: 0 is no effect, 100 is complete control, preemergence
Summary of the method: as §1

pigweed = experiment: Test B pre-/postemergence herbicide test; format: in vivo, Amaranthus retroflexus; details: for Plant response rating (0 to 100 scale), Pigweed: 0 is no effect, 100 is complete control, preemergence
Summary of the method: as §2

velvetleaf = experiment: Test B pre-/postemergence herbicide test; format: in vivo, Abutilon theophrasti; details: for Plant response rating (0 to 100 scale), Velvetleaf: 0 is no effect, 100 is complete control, preemergence
Summary of the method: as §2

blackgrass = experiment: Test B postemergence herbicide test; format: in vivo, Alopecurus myosuroides
Summary of the method: (§3)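 After treating 2-leaf paddy plants or 2–18 cm postemergence plants (1 to 4 leaves) with formulated chemical, researchers kept them in a greenhouse for 13–15 days. Effects were judged visually versus controls: 0 indicates none, 100 total control.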

wheat = experiment: Test B postemergence herbicide test; format: in vivo, Triticum aestivum; parameters: key to Wheat plant response rating: 0 = no effect, 100 = complete control
Summary of the method: (§4)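 Treated at 2-leaf (paddy) or 1–4-leaf, 2–18 cm (postemergence); greenhouse 13–15 d; visual score vs control, 0 none to 100 complete control; dash = not tested.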

wild oat = experiment: Test B postemergence herbicide test; format: in vivo, Avena fatua
Summary of the method: as §4

rice [2] = experiment: Test B flooded paddy test; format: in vivo, Oryza sativa; details: 1000 g ai/ha, scale 0 to 100 (0 no effect, 100 complete control)
Summary of the method: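 Plants grow to 1- to 4-leaf stage (2–18 cm) for postemergence spraying, or to 2-leaf stage for the paddy test. Formulated compound is applied. Greenhouse holding lasts 13–15 days. Response is scored visually relative to controls, 0 no effect to 100 complete control; a dash means no result.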

[3] = test system: small flower umbrella sedge; experiment: Test B flooded paddy test; format: in vivo, Cyperus difformis; details: 1000 g ai/ha, scale 0 to 100 (0 no effect, 100 complete control)
Summary of the method: as §3

ducksalad [4] = experiment: Test B flooded paddy test; format: in vivo, Heteranthera limosa; details: 1000 g ai/ha, scale 0 to 100 (0 no effect, 100 complete control)
Summary of the method: as §3

barnyardgrass [5] = experiment: Test B flooded paddy test; format: in vivo, Echinochloa crus-galli; details: 1000 g ai/ha, scale 0 to 100 (0 no effect, 100 complete control)
Summary of the method: as §3

rice [6] = experiment: Test C flooded paddy test; format: in vivo, Oryza sativa; details: for Plant response rating, Rice: 500 g ai/ha, visual rating after 12 to 14 days
Summary of the method: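 Postemergence sprays applied to plants 2 to 18 cm tall (1- to 4-leaf stage); paddy species grown to 2-leaf stage under flooding. After 12 to 14 days in greenhouse, visual rating versus untreated controls on 0–100 scale (0 no effect, 100 complete control).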

[7] = test system: smallflower umbrella sedge; experiment: Test C flooded paddy test; format: in vivo, Cyperus difformis; details: for Plant response rating, Sedge, Umbrella: 500 g ai/ha, visual rating after 12 to 14 days
ducksalad [8] = experiment: Test C flooded paddy test; format: in vivo, Heteranthera limosa; details: for Plant response rating, Ducksalad: 500 g ai/ha, visual rating after 12 to 14 days
barnyardgrass [9] = experiment: Test C flooded paddy test; format: in vivo, Echinochloa crus-galli; details: for Plant response rating, Barnyardgrass: 500 g ai/ha, visual rating after 12 to 14 days
Summary of the method: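 After a postemergence application at 1 to 4 leaves (plants 2–18 cm high), or at 2 leaves for barnyardgrass in flooded paddy, plants stayed in the greenhouse for 12 to 14 days. Damage was then judged visually relative to control plants, with 100 indicating complete control.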

[10] = 125 g ai/ha, visual rating, scale 0 (no effect) to 100 (complete control), postemergence
[11] = Postemergence, 500 g ai/ha, scale 0 (no effect) to 100 (complete control)
[12] = 500 g ai/ha, scale 0 to 100, 0 no effect, 100 complete control, preemergence
[13] = 125 g ai/ha, scale 0 to 100 (0 no effect, 100 complete control)
[14] = 250 g ai/ha, scale of 0 to 100, 0 is no effect, 100 is complete control
[15] = scale 0 to 100 (0 no effect, 100 complete control)
[16] = 62 g ai/ha, scale 0 to 100 (0 no effect, 100 complete control)
[17] = postemergence, 125 g ai/ha, scale 0 to 100

SMILES: Cc1nn(C(C)C)nc1C(=O)Nc1cccc(C(=O)N2CC=CC2)c1 [Compound 406]
- Plant response rating (0 to 100 scale), Barnyardgrass (barnyardgrass [1]; 125 g ai/ha): 40
- Barnyardgrass plant response rating (barnyardgrass [1]; 125 g ai/ha, visual rating, postemergence): 10
- Barnyardgrass plant response rating (barnyardgrass [1]; Postemergence, 500 g ai/ha): 20
- Plant response rating (0 to 100 scale), Surinam Grass (Surinam grass; 125 g ai/ha): 20
- Surinam Grass plant response rating (Surinam grass; [10]): 0
- Surinam Grass plant response rating (Surinam grass; [11]): 20
- Plant response rating (0 to 100 scale), Cocklebur (cocklebur; 125 g ai/ha): 0
- Cocklebur plant response rating (cocklebur; [10]): 20
- Cocklebur plant response rating (cocklebur; [11]): 50
- Plant response rating (0 to 100 scale), Corn (corn; 125 g ai/ha): 0
- Corn plant response rating (corn; [10]): 0
- Corn plant response rating (corn; [11]): 10
- Plant response rating (0 to 100 scale), Crabgrass, Large (large crabgrass; 125 g ai/ha): 90
- Crabgrass, Large plant response rating (large crabgrass; [10]): 10
- Crabgrass, Large plant response rating (large crabgrass; [11]): 20
- Plant response rating (0 to 100 scale), Foxtail, Giant (giant foxtail; 125 g ai/ha): 20
- Foxtail, Giant plant response rating (giant foxtail; [10]): 30
- Foxtail, Giant plant response rating (giant foxtail; [11]): 40
- Plant response rating (0 to 100 scale), Lambsquarters (lambsquarters; 125 g ai/ha): 90
- Lambsquarters plant response rating (lambsquarters; [10]): 50
- Lambsquarters plant response rating (lambsquarters; [11]): 60
- Plant response rating (0 to 100 scale), Morningglory (morningglory; 125 g ai/ha): 10
- Morningglory plant response rating (morningglory; [10]): 20
- Morningglory plant response rating (morningglory; [11]): 60
- Plant response rating (0 to 100 scale), Pigweed (pigweed; 125 g ai/ha): 50
- Pigweed plant response rating (pigweed; [10]): 40
- Pigweed plant response rating (pigweed; [11]): 50
- Plant response rating (0 to 100 scale), Velvetleaf (velvetleaf; 125 g ai/ha): 10
- Velvetleaf plant response rating (velvetleaf; [10]): 20
- Velvetleaf plant response rating (velvetleaf; [11]): 30
- Blackgrass plant response rating (blackgrass; [10]): 10
- Blackgrass plant response rating (blackgrass; [11]): 20
- Wheat plant response rating (wheat; [10]): 0
- Wheat plant response rating (wheat; [12]): 40
- Wheat plant response rating (wheat; [11]): 0
- Oat, Wild plant response rating (wild oat; [10]): 0
- Oat, Wild plant response rating (wild oat; [11]): 10
- Rice plant response rating (rice [2]): 60
- Sedge, Umbrella plant response rating [3]: 90
- Ducksalad plant response rating (ducksalad [4]): 90
- Barnyardgrass plant response rating (barnyardgrass [5]): 90
- Rice plant response rating (rice [6]; 62 g ai/ha, scale 0 to 100): 20
- Rice plant response rating (rice [6]; [13]): 35
- Rice plant response rating (rice [6]; [14]): 40
- Plant response rating, Rice (rice [6]; [15]): 45
- Sedge, Umbrella plant response rating ([7]; 62 g ai/ha, scale 0 to 100): 75
- Sedge, Umbrella plant response rating [7, 13]: 75
- Sedge, Umbrella plant response rating [7, 14]: 75
- Plant response rating, Sedge, Umbrella [7, 15]: 75
- Ducksalad plant response rating (ducksalad [8]; 62 g ai/ha, scale 0 to 100): 20
- Ducksalad plant response rating (ducksalad [8]; [13]): 20
- Ducksalad plant response rating (ducksalad [8]; [14]): 50
- Plant response rating, Ducksalad (ducksalad [8]; [15]): 75
- Barnyardgrass plant response rating (barnyardgrass [9]; [16]): 10
- Barnyardgrass plant response rating (barnyardgrass [9]; [13]): 25
- Barnyardgrass plant response rating (barnyardgrass [9]; [14]): 30
- Plant response rating, Barnyardgrass (barnyardgrass [9]; [15]): 40

SMILES: CCc1nn(C(C)C)nc1C(=S)Nc1cccc(C(=S)N(C)C)c1 [Compound 410]
- Plant response rating (0 to 100 scale), Barnyardgrass (barnyardgrass [1]; 125 g ai/ha): 100
- Barnyardgrass plant response rating (barnyardgrass [1]; Postemergence, 125 g ai/ha): 0
- Barnyardgrass plant response rating (barnyardgrass [1]; Postemergence, 500 g ai/ha): 0
- Plant response rating (0 to 100 scale), Surinam Grass (Surinam grass; 125 g ai/ha): 60
- Surinam Grass plant response rating (Surinam grass; [11]): 0
- Surinam Grass plant response rating (Surinam grass; [17]): 0
- Plant response rating (0 to 100 scale), Cocklebur (cocklebur; 125 g ai/ha): 0
- Cocklebur plant response rating (cocklebur; [11]): 10
- Cocklebur plant response rating (cocklebur; [17]): 0
- Plant response rating (0 to 100 scale), Corn (corn; 125 g ai/ha): 0
- Corn plant response rating (corn; [11]): 10
- Corn plant response rating (corn; [17]): 0
- Plant response rating (0 to 100 scale), Crabgrass, Large (large crabgrass; 125 g ai/ha): 90
- Crabgrass, Large plant response rating (large crabgrass; [11]): 20
- Crabgrass, Large plant response rating (large crabgrass; [17]): 0
- Plant response rating (0 to 100 scale), Foxtail, Giant (giant foxtail; 125 g ai/ha): 30
- Foxtail, Giant plant response rating (giant foxtail; [11]): 20
- Foxtail, Giant plant response rating (giant foxtail; [17]): 10
- Plant response rating (0 to 100 scale), Lambsquarters (lambsquarters; 125 g ai/ha): 100
- Lambsquarters plant response rating (lambsquarters; [11]): 70
- Lambsquarters plant response rating (lambsquarters; [17]): 20
- Plant response rating (0 to 100 scale), Morningglory (morningglory; 125 g ai/ha): 30
- Morningglory plant response rating (morningglory; [11]): 80
- Morningglory plant response rating (morningglory; [17]): 0
- Plant response rating (0 to 100 scale), Pigweed (pigweed; 125 g ai/ha): 60
- Pigweed plant response rating (pigweed; [11]): 70
- Pigweed plant response rating (pigweed; [17]): 0
- Plant response rating (0 to 100 scale), Velvetleaf (velvetleaf; 125 g ai/ha): 30
- Velvetleaf plant response rating (velvetleaf; [11]): 0
- Velvetleaf plant response rating (velvetleaf; [17]): 0
- Blackgrass plant response rating (blackgrass; [11]): 30
- Blackgrass plant response rating (blackgrass; [17]): 10
- Wheat plant response rating (wheat; [12]): 90
- Wheat plant response rating (wheat; [11]): 10
- Wheat plant response rating (wheat; [17]): 0
- Oat, Wild plant response rating (wild oat; [11]): 10
- Oat, Wild plant response rating (wild oat; [17]): 0
- Rice plant response rating (rice [2]): 60
- Sedge, Umbrella plant response rating [3]: 80
- Ducksalad plant response rating (ducksalad [4]): 80
- Barnyardgrass plant response rating (barnyardgrass [5]): 80
- Rice plant response rating (rice [6]; 62 g ai/ha, scale 0 to 100): 20
- Rice plant response rating (rice [6]; [13]): 40
- Rice plant response rating (rice [6]; [14]): 60
- Plant response rating, Rice (rice [6]; [15]): 60
- Sedge, Umbrella plant response rating ([7]; 62 g ai/ha, scale 0 to 100): 70
- Sedge, Umbrella plant response rating [7, 13]: 75
- Sedge, Umbrella plant response rating [7, 14]: 80
- Plant response rating, Sedge, Umbrella [7, 15]: 85
- Ducksalad plant response rating (ducksalad [8]; 62 g ai/ha, scale 0 to 100): 30
- Ducksalad plant response rating (ducksalad [8]; [13]): 40
- Ducksalad plant response rating (ducksalad [8]; [14]): 60
- Plant response rating, Ducksalad (ducksalad [8]; [15]): 60
- Barnyardgrass plant response rating (barnyardgrass [9]; [16]): 0
- Barnyardgrass plant response rating (barnyardgrass [9]; [13]): 20
- Barnyardgrass plant response rating (barnyardgrass [9]; [14]): 60
- Plant response rating, Barnyardgrass (barnyardgrass [9]; [15]): 65
